According to article PMC11562961, “An activity-based probe for antimicrobial target DXP synthase, a thiamin diphosphate-dependent enzyme” (Frontiers in chemical biology, 2024):

Biological target: T1, 1-deoxy-D-xylulose 5-phosphate synthase (DXPS) (Escherichia coli, UniProt P77488)
T1 construct: gene dxs
T1 sequence (P77488 2-620): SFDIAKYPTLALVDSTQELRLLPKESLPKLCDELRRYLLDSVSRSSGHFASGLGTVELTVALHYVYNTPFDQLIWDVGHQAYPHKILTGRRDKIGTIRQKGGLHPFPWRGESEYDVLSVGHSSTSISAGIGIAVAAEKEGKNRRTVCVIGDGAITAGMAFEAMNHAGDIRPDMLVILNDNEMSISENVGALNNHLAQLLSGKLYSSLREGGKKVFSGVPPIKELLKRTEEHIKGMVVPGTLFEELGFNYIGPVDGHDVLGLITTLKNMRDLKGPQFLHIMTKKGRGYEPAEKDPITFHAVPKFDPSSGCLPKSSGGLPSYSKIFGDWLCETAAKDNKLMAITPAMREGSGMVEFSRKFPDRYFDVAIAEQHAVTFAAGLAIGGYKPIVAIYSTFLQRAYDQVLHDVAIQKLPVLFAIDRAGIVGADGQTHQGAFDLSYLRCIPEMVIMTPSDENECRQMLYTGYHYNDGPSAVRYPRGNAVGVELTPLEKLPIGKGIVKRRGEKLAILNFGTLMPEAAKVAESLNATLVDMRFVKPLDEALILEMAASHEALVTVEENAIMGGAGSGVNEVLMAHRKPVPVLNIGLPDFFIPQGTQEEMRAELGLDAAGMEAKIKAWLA
Test: DXPS-IspC coupled assay (Morrison Ki); also CD detection of the PLThDP adduct and photo-crosslink in-gel fluorescence labeling
Format: biochemical

C#CCCC1(CCOP(=O)(O)C(C)=O)N=N1 [compound 1, ABP 1]
Ki: 1600 ± 220 nM
